This is an account of results in patent US20240293379A1, “THERAPEUTIC AGENT FOR CANCER OF PATIENT WITH DECREASE IN RB1 FUNCTION USING MYT1 INHIBITOR AND CHEMOTHERAPEUTIC AGENT IN COMBINATION, AND TREATMENT METHOD THEREOF” (Chugai Seiyaku Kabushiki Kaisha, priority 2022, published 2024).

Read-outs that look alike come from different tables or passages of the source.

The assay deals with LU65. Briefly: Pemetrexed cytotoxicity test upon suppression of expression of MYT1. The format is cell-based. The settings on record: Homo sapiens, LU65 (RB1 mutant), 7 days. As for the experimental part: Thereafter, the plates were shaken to transfect each siRNA at a final concentration of 10 nM.
The −Log 2 value of fold change of IC50 and the maximum value of Bliss score, which are indexes of the combination effect, were calculated by comparing with the actually obtained cell survival curve, and described in Table 6 (see Non Patent Literature 9).

Usually IC50 stands for the concentration that inhibits the measured activity by half. For the compound `Nc1nc2[nH]cc(CCc3ccc(C(=O)N[C@@H](CCC(=O)O)C(=O)O)cc3)c2c(=O)[nH]1` [pemetrexed], the IC50 worked out at 134 nM (Lu-65, read-out: IC50 of pemetrexed, MYT1 #16, MYT1 siRNA #16 10 nM); 140 nM (Lu-65, read-out: IC50 of pemetrexed, MYT1 #18, MYT1 siRNA #18 10 nM); 1070 nM (Lu-65, read-out: IC50 of pemetrexed, NT, negative control siRNA 10 nM).
